# According to ChEMBL document CHEMBL3797178, “Synthesis, antimycobacterial and antibacterial activity of 1-(6-amino-3,5-difluoropyridin-2-yl)fluoroquinolone derivatives containing an oxime functional moiety” (2016):
# Assays:
# Type in all cases: functional
# [1] = test system: Pseudomonas aeruginosa; assay: Antibacterial activity against Pseudomonas aeruginosa 14-19 after 18 to 24 hrs by CLSI M100-S11 method
# [2] = test system: Streptococcus pneumoniae; assay: Antibacterial activity against Streptococcus pneumoniae ATCC 19615 after 18 to 24 hrs by CLSI M100-S11 method
# [3] = test system: Enterococcus faecium; assay: Antibacterial activity against Enterococcus faecium 14-1 after 18 to 24 hrs by CLSI M100-S11 method
# [4] = test system: Escherichia coli; assay: Antibacterial activity against Escherichia coli 14-2 after 18 to 24 hrs by CLSI M100-S11 method
# [5] = test system: Pseudomonas aeruginosa; assay: Antibacterial activity against Pseudomonas aeruginosa ATCC 27853 after 18 to 24 hrs by CLSI M100-S11 method
# [6] = test system: Pseudomonas aeruginosa; assay: Antibacterial activity against Pseudomonas aeruginosa 14-14 after 18 to 24 hrs by CLSI M100-S11 method
# [7] = test system: Escherichia coli; assay: Antibacterial activity against extended-spectrum beta-lactamase-producing Escherichia coli 14-1 after 18 to 24 hrs by CLSI M100-S11 method
# [8] = test system: Staphylococcus aureus; assay: Antibacterial activity against methicillin-resistant Staphylococcus aureus 14-4 after 18 to 24 hrs by CLSI M100-S11 method
# [9] = test system: Enterococcus faecium; assay: Antibacterial activity against Enterococcus faecium 14-2 after 18 to 24 hrs by CLSI M100-S11 method
# [10] = test system: Staphylococcus epidermidis; assay: Antibacterial activity against methicillin-sensitive Staphylococcus epidermidis 14-6 after 18 to 24 hrs by CLSI M100-S11 method
# [11] = test system: Escherichia coli; assay: Antibacterial activity against extended-spectrum beta-lactamase-producing Escherichia coli 14-2 after 18 to 24 hrs by CLSI M100-S11 method
# [12] = test system: Escherichia coli; assay: Antibacterial activity against Escherichia coli 14-1 after 18 to 24 hrs by CLSI M100-S11 method
# [13] = test system: Staphylococcus epidermidis; assay: Antibacterial activity against methicillin-sensitive Staphylococcus epidermidis 14-4 after 18 to 24 hrs by CLSI M100-S11 method
# [14] = test system: Klebsiella pneumoniae; assay: Antibacterial activity against Klebsiella pneumoniae 14-2 after 18 to 24 hrs by CLSI M100-S11 method
# [15] = test system: Staphylococcus aureus; assay: Antibacterial activity against methicillin-sensitive Staphylococcus aureus 14-4 after 18 to 24 hrs by CLSI M100-S11 method
# [16] = test system: Staphylococcus aureus; assay: Antibacterial activity against methicillin-sensitive Staphylococcus aureus 14-3 after 18 to 24 hrs by CLSI M100-S11 method
# [17] = test system: Staphylococcus epidermidis; assay: Antibacterial activity against methicillin-resistant Staphylococcus epidermidis 14-37 after 18 to 24 hrs by CLSI M100-S11 method
# [18] = test system: Klebsiella pneumoniae; assay: Antibacterial activity against extended-spectrum beta-lactamase-producing Klebsiella pneumoniae 14-19 after 18 to 24 hrs by CLSI M100-S11 method
# [19] = test system: Klebsiella pneumoniae; assay: Antibacterial activity against extended-spectrum beta-lactamase-producing Klebsiella pneumoniae 14-17 after 18 to 24 hrs by CLSI M100-S11 method
# [20] = test system: Staphylococcus aureus; assay: Antibacterial activity against methicillin-sensitive Staphylococcus aureus 14-2 after 18 to 24 hrs by CLSI M100-S11 method
# [21] = test system: Staphylococcus epidermidis; assay: Antibacterial activity against methicillin-sensitive Staphylococcus epidermidis 14-2 after 18 to 24 hrs by CLSI M100-S11 method
# [22] = test system: Staphylococcus aureus; assay: Antibacterial activity against methicillin-resistant Staphylococcus aureus 14-5 after 18 to 24 hrs by CLSI M100-S11 method
# [23] = test system: Enterococcus faecalis; assay: Antibacterial activity against Enterococcus faecalis 14-2 after 18 to 24 hrs by CLSI M100-S11 method
# [24] = test system: Staphylococcus aureus; assay: Antibacterial activity against Staphylococcus aureus CMCC 26003 after 18 to 24 hrs by CLSI M100-S11 method
# [25] = test system: Pseudomonas aeruginosa; assay: Antibacterial activity against Pseudomonas aeruginosa 14-15 after 18 to 24 hrs by CLSI M100-S11 method
# [26] = test system: Klebsiella pneumoniae; assay: Antibacterial activity against Klebsiella pneumoniae 14-3 after 18 to 24 hrs by CLSI M100-S11 method
# [27] = test system: Staphylococcus epidermidis; assay: Antibacterial activity against methicillin-resistant Staphylococcus epidermidis 14-22 after 18 to 24 hrs by CLSI M100-S11 method
# [28] = test system: Enterococcus faecalis; assay: Antibacterial activity against Enterococcus faecalis 14-3 after 18 to 24 hrs by CLSI M100-S11 method
# [29] = test system: Enterococcus faecalis; assay: Antibacterial activity against Enterococcus faecalis 14-1 after 18 to 24 hrs by CLSI M100-S11 method
# [30] = test system: Klebsiella pneumoniae; assay: Antibacterial activity against Klebsiella pneumoniae 14-4 after 18 to 24 hrs by CLSI M100-S11 method
# [31] = test system: Pseudomonas aeruginosa; assay: Antibacterial activity against Pseudomonas aeruginosa 14-16 after 18 to 24 hrs by CLSI M100-S11 method
# [32] = test system: Mycobacterium tuberculosis; assay: Antimycobacterial activity against Mycobacterium tuberculosis H37Rv ATCC 27294 after 3 days by microplate Alamar Blue assay; conditions: H37Rv ATCC 27294, 72 h
# [33] = test system: Klebsiella pneumoniae; assay: Antibacterial activity against extended-spectrum beta-lactamase-producing Klebsiella pneumoniae 14-18 after 18 to 24 hrs by CLSI M100-S11 method
# [34] = test system: Klebsiella pneumoniae; assay: Antibacterial activity against Klebsiella pneumoniae 14-1 after 18 to 24 hrs by CLSI M100-S11 method
# [35] = test system: Staphylococcus epidermidis; assay: Antibacterial activity against methicillin-resistant Staphylococcus epidermidis 14-39 after 18 to 24 hrs by CLSI M100-S11 method
# [36] = test system: Pseudomonas aeruginosa; assay: Antibacterial activity against Pseudomonas aeruginosa 14-9 after 18 to 24 hrs by CLSI M100-S11 method
# [37] = test system: Escherichia coli; assay: Antibacterial activity against Escherichia coli ATCC 25922 after 18 to 24 hrs by CLSI M100-S11 method
SMILES,MIC [1],MIC [2],MIC [3],MIC [4],MIC [5],MIC [6],MIC [7],MIC [8],MIC [9],MIC [10],MIC [11],MIC [12],MIC [13],MIC [14],MIC [15],MIC [16],MIC [17],MIC [18],MIC [19],MIC [20],further results
CO/N=C1\CN(c2nc3c(cc2F)c(=O)c(C(=O)O)cn3-c2nc(N)c(F)cc2F)[C@H]1CN,32 µg/mL,64 µg/mL,> 128 µg/mL,> 128 µg/mL,16 µg/mL,64 µg/mL,64 µg/mL,> 128 µg/mL,128 µg/mL,64 µg/mL,> 128 µg/mL,> 128 µg/mL,64 µg/mL,> 128 µg/mL,4 µg/mL,8 µg/mL,> 128 µg/mL,> 128 µg/mL,> 128 µg/mL,8 µg/mL,MIC [21]: > 128 µg/mL; MIC [22]: > 128 µg/mL; MIC [23]: > 128 µg/mL; MIC [24]: 4 µg/mL; MIC [25]: 64 µg/mL; MIC [26]: > 128 µg/mL; MIC [27]: > 128 µg/mL; MIC [28]: > 128 µg/mL; MIC [29]: > 128 µg/mL; MIC [30]: > 128 µg/mL; MIC [31]: 32 µg/mL; MIC [32]: > 32 µg/mL; MIC [33]: 64 µg/mL; MIC [34]: > 128 µg/mL; MIC [35]: > 128 µg/mL; MIC [36]: 32 µg/mL; MIC [37]: 2 µg/mL
CCO/N=C1\CN(c2nc3c(cc2F)c(=O)c(C(=O)O)cn3-c2nc(N)c(F)cc2F)[C@H]1CN,64 µg/mL,32 µg/mL,> 128 µg/mL,> 128 µg/mL,16 µg/mL,64 µg/mL,64 µg/mL,> 128 µg/mL,32 µg/mL,128 µg/mL,> 128 µg/mL,> 128 µg/mL,64 µg/mL,> 128 µg/mL,4 µg/mL,8 µg/mL,> 128 µg/mL,> 128 µg/mL,> 128 µg/mL,4 µg/mL,MIC [21]: > 128 µg/mL; MIC [22]: > 128 µg/mL; MIC [23]: > 128 µg/mL; MIC [24]: 2 µg/mL; MIC [25]: 64 µg/mL; MIC [26]: > 128 µg/mL; MIC [27]: > 128 µg/mL; MIC [28]: > 128 µg/mL; MIC [29]: > 128 µg/mL; MIC [30]: 128 µg/mL; MIC [31]: 64 µg/mL; MIC [32]: > 32 µg/mL; MIC [33]: 64 µg/mL; MIC [34]: > 128 µg/mL; MIC [35]: > 129 µg/mL; MIC [36]: 32 µg/mL; MIC [37]: 2 µg/mL
CO/N=C1\CN(c2nc3c(cc2F)c(=O)c(C(=O)O)cn3-c2nc(N)c(F)cc2F)[C@@H]1CN,64 µg/mL,128 µg/mL,> 128 µg/mL,> 128 µg/mL,64 µg/mL,64 µg/mL,> 128 µg/mL,> 128 µg/mL,64 µg/mL,> 128 µg/mL,> 128 µg/mL,> 128 µg/mL,> 128 µg/mL,> 128 µg/mL,16 µg/mL,32 µg/mL,> 128 µg/mL,> 128 µg/mL,> 128 µg/mL,32 µg/mL,MIC [21]: > 128 µg/mL; MIC [22]: > 128 µg/mL; MIC [23]: > 128 µg/mL; MIC [24]: 16 µg/mL; MIC [25]: 64 µg/mL; MIC [26]: > 128 µg/mL; MIC [27]: > 128 µg/mL; MIC [28]: > 128 µg/mL; MIC [29]: > 128 µg/mL; MIC [30]: > 128 µg/mL; MIC [31]: 64 µg/mL; MIC [32]: > 32 µg/mL; MIC [33]: 64 µg/mL; MIC [34]: > 128 µg/mL; MIC [35]: > 131 µg/mL; MIC [36]: 64 µg/mL; MIC [37]: 16 µg/mL
CC1(CN)CN(c2nc3c(cc2F)c(=O)c(C(=O)O)cn3-c2nc(N)c(F)cc2F)C/C1=N\OCc1ccccc1 (stereo not drawn),128 µg/mL,32 µg/mL,> 128 µg/mL,128 µg/mL,128 µg/mL,128 µg/mL,64 µg/mL,64 µg/mL,8 µg/mL,> 128 µg/mL,> 128 µg/mL,> 128 µg/mL,> 128 µg/mL,> 128 µg/mL,4 µg/mL,8 µg/mL,> 128 µg/mL,> 128 µg/mL,> 128 µg/mL,0.25 µg/mL,MIC [21]: > 128 µg/mL; MIC [22]: 64 µg/mL; MIC [23]: > 128 µg/mL; MIC [24]: 0.25 µg/mL; MIC [25]: 128 µg/mL; MIC [26]: > 128 µg/mL; MIC [27]: 64 µg/mL; MIC [28]: > 128 µg/mL; MIC [29]: > 128 µg/mL; MIC [30]: > 128 µg/mL; MIC [31]: 128 µg/mL; MIC [32]: 15.6 µg/mL; MIC [33]: > 128 µg/mL; MIC [34]: > 128 µg/mL; MIC [35]: > 128 µg/mL; MIC [36]: 128 µg/mL; MIC [37]: 16 µg/mL
